Measurements published in ChEMBL document CHEMBL5233269, “Anticancer potential of spirocompounds in medicinal chemistry: A pentennial expedition” (Eur J Med Chem, 2021).

Experiments:
HepG2 [1] = experiment: Anticancer activity against human HepG2 cells assessed as inhibition of cell viability; format: functional, cell-based
HCT-116 [2] = experiment: Anticancer activity against human HCT-116 cells assessed as inhibition of cell growth; format: functional, cell-based
PC-3 [3] = experiment: Anticancer activity against human PC-3 cells assessed as inhibition of cell growth; format: functional, cell-based
MDA-MB-435 = experiment: Growth inhibition of human MDA-MB-435 cells by SRB assay; format: functional
MCF7 [4] = experiment: Growth inhibition of human MCF7 cells by SRB assay; format: functional
MCF7 [5] = experiment: Anticancer activity against human MCF7 cells; format: functional, cell-based
HeLa = experiment: Anticancer activity against human HeLa cells; format: functional, cell-based
A549 [6] = experiment: Anticancer activity against human A549 cells assessed as inhibition of cell proliferation; format: functional, cell-based
DU-145 = experiment: Anticancer activity against human DU-145 cells; format: functional, cell-based
MCF7 [7] = experiment: Cytotoxicity against human MCF7 cells incubated for 48 hrs by SRB assay relative to control; format: functional; set-up: concentration or dose not given beside the values
HepG2 [8] = experiment: Cytotoxicity against human HepG2 cells incubated for 48 hrs by SRB assay relative to control; format: functional; set-up: concentration or dose not given beside the values
[9] = Cytotoxicity against human HBF4 cells incubated for 48 hrs by SRB assay relative to control; format: toxicity, cell-based; set-up: concentration or dose not given beside the values; details: hbf4, 48 h
[10] = biological target: T1, Amine oxidase [flavin-containing] A (Rattus norvegicus, UniProt P21396); experiment: Inhibition of rat brain MAO-A relative to control; format: tissue-based
T1 sequence (P21396 whole entry): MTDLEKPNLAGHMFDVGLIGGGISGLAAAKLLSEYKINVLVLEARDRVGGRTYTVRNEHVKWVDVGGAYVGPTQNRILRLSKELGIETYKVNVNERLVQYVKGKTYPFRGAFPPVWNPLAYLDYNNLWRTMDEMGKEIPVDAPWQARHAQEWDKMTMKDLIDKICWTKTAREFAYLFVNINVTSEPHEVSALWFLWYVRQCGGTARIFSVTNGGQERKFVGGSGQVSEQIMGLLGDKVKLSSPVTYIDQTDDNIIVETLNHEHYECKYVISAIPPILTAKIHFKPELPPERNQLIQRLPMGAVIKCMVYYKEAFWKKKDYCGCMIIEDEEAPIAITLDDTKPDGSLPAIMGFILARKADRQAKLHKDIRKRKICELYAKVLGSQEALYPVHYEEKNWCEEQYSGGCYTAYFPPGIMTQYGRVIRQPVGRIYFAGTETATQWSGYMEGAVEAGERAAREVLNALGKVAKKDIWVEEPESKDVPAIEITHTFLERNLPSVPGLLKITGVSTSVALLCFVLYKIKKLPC

PC-3 [11] = experiment: Cytotoxicity against human PC-3 cells; format: functional, cell-based
SW-620 = experiment: Cytotoxicity against human SW620 cells; format: functional, cell-based
HCT-116 [12] = experiment: Cytotoxicity against human HCT-116 cells; format: functional, cell-based
A549 [13] = experiment: Cytotoxicity against human A549 cells; format: functional, cell-based
K562 = experiment: Anticancer activity against human K562 cells; format: functional, cell-based

CC(=O)OC[C@H]1OC(Sc2nc(-c3ccc(C)o3)c3c(n2)N(c2ccc(F)cc2)C2(CCCCC2)S3)[C@H](OC(C)=O)[C@@H](OC(C)=O)[C@@H]1OC(C)=O (some centres not stated)
IC50 (HepG2 [1]): 0.135 µM
IC50 (HCT-116 [2]): 0.12 µM
IC50 (PC-3 [3]): 0.224 µM

N#CC1=C(N)OC2=C(C(=O)c3ccccc32)C12C(=O)Nc1ccc(Cl)cc12 (configuration not stated)
GI50 (MDA-MB-435): 2.1 µM
GI50 (MCF7 [4]): > 100 µM

Cc1ccc2c(c1)C1(Nc3ccccc3NC3COC(=O)C31)C(=O)N2 (configuration not stated)
IC50 (MCF7 [5]): 2.14 µM
IC50 (HeLa): 9.58 µM
IC50 (A549 [6]): 1.55 µM
IC50 (DU-145): 1.35 µM

O=C1OCC2Nc3ccc(Cl)cc3NC3(C(=O)Nc4ccccc43)C12 (configuration not stated)
IC50 (MCF7 [5]): 9.51 µM
IC50 (HeLa): 5.37 µM
IC50 (A549 [6]): 2.95 µM
IC50 (DU-145): 1.7 µM

CCOC(=O)C1=C2N=C(N)c3ccccc3N2C2=C(C(=O)CC(C)(C)C2)C12C(=O)Nc1ccccc12 (configuration not stated)
Activity (MCF7 [7]): 76%
Activity (HepG2 [8]): 29%
Activity [9]: 30%

N#CC1=C(N)OC2=C(C(=O)c3ccccc32)C12C(=O)Nc1ccc(I)cc12 (configuration not stated)
GI50 (MDA-MB-435): > 100 µM
GI50 (MCF7 [4]): 62 µM

CC1(C)CC(=O)C2=C(C1)N(c1ccc(Cl)cc1)C(N)=C(C#N)C21C(=O)Nc2ccccc21 (configuration not stated)
Activity (MCF7 [7]): 79%
Activity (HepG2 [8]): 38%
Activity [9]: 30%

O=C1OCC2Nc3ccccc3NC3(C(=O)N(Cc4ccccc4)c4ccccc43)C12 (configuration not stated)
IC50 (MCF7 [5]): 2.24 µM
IC50 (HeLa): 2.29 µM
IC50 (A549 [6]): 1.35 µM
IC50 (DU-145): 1.15 µM

CCCN(CCC)C(=O)CSc1nc2c(c(=O)n1CC)C1(CCCCC1)Cc1ccccc1-2
inhibition (INH) [10]: 86%

CC1CCC2(CC1)SC/C(=N\c1nnc(SC3OC[C@@H](O)[C@H](O)[C@H]3O)s1)N2c1ccc(F)cc1 (some centres not stated)
IC50 (HepG2 [1]): 0.599 µM
IC50 (HCT-116 [2]): 0.107 µM
IC50 (PC-3 [3]): 9.49 µM

CC1(C)CC(=O)C2=C(C1)N(c1ccccc1)C(N)=C(C#N)C21C(=O)Nc2ccccc21 (configuration not stated)
Activity (MCF7 [7]): 76%
Activity (HepG2 [8]): 39%
Activity [9]: 23%

O=C1Oc2cc(Cl)ccc2C2C1CN(C(=O)N1CCCCC1)C21C(=O)Nc2ccccc21 (configuration not stated)
IC50 (PC-3 [11]): > 50 µM
IC50 (SW-620): 0.49 µM
IC50 (HCT-116 [12]): 15.8 µM
IC50 (A549 [13]): 7.09 µM

CCC(=O)N1CC2C(=O)Oc3ccccc3C2C12C(=O)Nc1ccccc12 (configuration not stated)
IC50 (PC-3 [11]): 46.7 µM
IC50 (SW-620): 4.28 µM
IC50 (HCT-116 [12]): 10.2 µM
IC50 (A549 [13]): 11 µM

CCn1c(SC)nc2c(c1=O)C1(CCCCC1)Cc1ccccc1-2
inhibition (INH) [10]: 66%

CCN(CC)C[C@@]1([C@H]2c3ccccc3[C@@H](O)[C@]23C(=O)N(C)c2c(C)cccc23)C(=O)N(C)c2c(C)cccc21
IC50 (K562): 26.7 µM

CCC(=O)N1CC2C(=O)Oc3ccccc3C2C12C(=O)Nc1cc(Cl)ccc12 (configuration not stated)
IC50 (PC-3 [11]): > 50 µM
IC50 (SW-620): < 0.08 µM
IC50 (HCT-116 [12]): > 50 µM
IC50 (A549 [13]): > 50 µM

CN1C(=O)[C@@]2(c3cccc(Cl)c31)[C@H](O)c1ccccc1[C@@H]2[C@]1(CN2CCCCC2)C(=O)N(C)c2c(Cl)cccc21
IC50 (K562): 32.8 µM

CCn1c(SCC(=O)Nc2ccccc2Cl)nc2c(c1=O)C1(CCCCC1)Cc1ccccc1-2
inhibition (INH) [10]: 66%

N#CC1=C(N)OC2=C(C(=O)c3ccccc32)C12C(=O)Nc1ccc(Br)cc12 (configuration not stated)
GI50 (MDA-MB-435): 1.8 µM
GI50 (MCF7 [4]): > 100 µM

CN1C(=O)[C@@]2(c3cccc(Cl)c31)[C@H](O)c1ccccc1[C@@H]2[C@]1(CN2CCCC2)C(=O)N(C)c2c(Cl)cccc21
IC50 (K562): 21 µM

CC1CCC2(CC1)SC/C(=N\c1nnc(SC3O[C@H](CO)[C@@H](O)[C@H](O)[C@H]3O)s1)N2c1ccc(F)cc1 (some centres not stated)
IC50 (HepG2 [1]): 0.334 µM
IC50 (HCT-116 [2]): 0.106 µM
IC50 (PC-3 [3]): 0.112 µM

O=C(C1CN(C(=O)N2CCCCC2)C2(C(=O)Nc3ccccc32)C1c1ccc(Cl)cc1O)N1CCOCC1 (configuration not stated)
IC50 (PC-3 [11]): > 50 µM
IC50 (SW-620): < 0.08 µM
IC50 (HCT-116 [12]): > 50 µM
IC50 (A549 [13]): 36.8 µM

CCOC(=O)C1=C2N=C(N)C3=C(SC4CCCCC34)N2C2=C(C(=O)CC(C)(C)C2)C12C(=O)Nc1ccccc12 (configuration not stated)
Activity (MCF7 [7]): 80%
Activity (HepG2 [8]): 25%
Activity [9]: 17%

CN1CCN(C(=O)C2CN(C(=O)N3CCCCC3)C3(C(=O)Nc4cc(Cl)ccc43)C2c2ccccc2O)CC1 (configuration not stated)
IC50 (PC-3 [11]): > 50 µM
IC50 (SW-620): 31.6 µM
IC50 (HCT-116 [12]): > 50 µM
IC50 (A549 [13]): 1.17 µM

O=C1OCC2Nc3ccccc3NC3(C(=O)N(Cc4ccccc4)c4ccc(Cl)cc43)C12 (configuration not stated)
IC50 (MCF7 [5]): 9.28 µM
IC50 (HeLa): 15.9 µM
IC50 (A549 [6]): 3.89 µM
IC50 (DU-145): 2.19 µM

N#CC1=C(N)OC2=C(C(=O)c3ccccc32)C12C(=O)Nc1ccc(F)cc12 (configuration not stated)
GI50 (MDA-MB-435): > 100 µM
GI50 (MCF7 [4]): 90.9 µM

Cc1ccc(-c2nc(SC3O[C@H](CO)[C@@H](O)[C@H](O)[C@H]3O)nc3c2SC2(CCCCC2)N3c2ccc(F)cc2)o1 (some centres not stated)
IC50 (HepG2 [1]): 0.285 µM
IC50 (HCT-116 [2]): 0.0958 µM
IC50 (PC-3 [3]): 0.282 µM

CN1C(=O)[C@@]2(c3cccc(Cl)c31)[C@H](O)c1ccccc1[C@@H]2[C@]1(CN2CCSCC2)C(=O)N(C)c2c(Cl)cccc21
IC50 (K562): 21.9 µM

CCN(CC)C[C@@]1([C@H]2c3ccccc3[C@@H](O)[C@]23C(=O)N(C)c2ccc(C)cc23)C(=O)N(C)c2ccc(C)cc21
IC50 (K562): 27.8 µM

N#CC1=C(N)OC2=C(C(=O)C=C2)C12C(=O)Nc1ccc(Cl)cc12 (configuration not stated)
GI50 (MDA-MB-435): 29.9 µM
GI50 (MCF7 [4]): 53 µM

CCOC(=O)C1=C(N)N(c2ccccc2)C2=C(C(=O)CC(C)(C)C2)C12C(=O)Nc1ccccc12 (configuration not stated)
Activity (MCF7 [7]): 78%
Activity (HepG2 [8]): 37%
Activity [9]: 24%

O=C1N(Cc2ccccc2)c2ccccc2[C@@]12[C@H](O)c1ccccc1[C@@H]2[C@]1(CN2CCCCC2)C(=O)N(Cc2ccccc2)c2ccccc21
IC50 (K562): 9.7 µM

CCn1c(=S)[nH]c2c(c1=O)C1(CCCCC1)Cc1ccccc1-2
inhibition (INH) [10]: 58%

CC(=O)OC[C@H]1OC(Sc2nnc(/N=C3\CSC4(CCCCC4)N3c3ccc(F)cc3)s2)[C@H](OC(C)=O)[C@@H](OC(C)=O)[C@@H]1OC(C)=O (some centres not stated)
IC50 (HepG2 [1]): 0.176 µM
IC50 (HCT-116 [2]): 0.0922 µM
IC50 (PC-3 [3]): 0.121 µM

CCN1C(=O)[C@@]2(c3cccc(Cl)c31)[C@H](O)c1ccccc1[C@@H]2[C@]1(CN2CCCC2)C(=O)N(CC)c2c(Cl)cccc21
IC50 (K562): 8.8 µM

O=C1OCC2Nc3ccccc3NC3(C(=O)N(Cc4ccccc4)c4ccc(Br)cc43)C12 (configuration not stated)
IC50 (MCF7 [5]): 2.34 µM
IC50 (HeLa): 11.9 µM
IC50 (A549 [6]): 3.8 µM
IC50 (DU-145): 3.16 µM

CCN1C(=O)[C@@]2(c3cccc(C)c31)[C@H](O)c1ccccc1[C@@H]2[C@]1(CN2CCCC2)C(=O)N(CC)c2c(C)cccc21
IC50 (K562): 21.4 µM
